According to the kinase profiling compilation of Christmann-Franck et al. (2016):

Key:
Assay in all cases: KINOMEscan competition binding
Conditions in all cases: compound 1.0 µM
HIPK1 (human) = HIPK1 (human) (UniProt Q86Z02)
CDKL2 (human) = CDKL2 (human) (UniProt Q92772)
SIK2 (human) = SIK2 (human) (UniProt Q9H0K1)
DMPK (human) = DMPK (human) (UniProt Q09013)
GSK3B (human) = GSK3B (human) (UniProt P49841)
DCLK3 (human) = DCLK3 (human) (UniProt Q9C098)
PLK4 (human) = PLK4 (human) (UniProt O00444)
ACVR1B (human) = ACVR1B (human) (UniProt P36896)
MYLK3 (human) = MYLK3 (human) (UniProt Q32MK0)
BMX (human) = BMX (human) (UniProt P51813)
CAMK1D (human) = CAMK1D (human) (UniProt Q8IU85)
Chain of CAMK1D (human) (Q8IU85 whole entry, looked up): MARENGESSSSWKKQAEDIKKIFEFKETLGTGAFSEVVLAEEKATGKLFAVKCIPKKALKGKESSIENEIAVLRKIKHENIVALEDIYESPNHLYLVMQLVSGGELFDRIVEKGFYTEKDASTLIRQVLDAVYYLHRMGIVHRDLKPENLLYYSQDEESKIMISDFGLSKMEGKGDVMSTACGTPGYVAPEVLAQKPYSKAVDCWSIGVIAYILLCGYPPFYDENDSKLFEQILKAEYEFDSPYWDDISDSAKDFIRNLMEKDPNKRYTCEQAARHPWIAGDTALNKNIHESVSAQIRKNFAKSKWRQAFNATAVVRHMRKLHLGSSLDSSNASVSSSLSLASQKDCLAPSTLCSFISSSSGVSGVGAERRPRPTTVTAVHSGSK

MST4 (human) = MST4 (human) (UniProt Q9P289)
Chain of MST4 (human) (Q9P289 whole entry, looked up): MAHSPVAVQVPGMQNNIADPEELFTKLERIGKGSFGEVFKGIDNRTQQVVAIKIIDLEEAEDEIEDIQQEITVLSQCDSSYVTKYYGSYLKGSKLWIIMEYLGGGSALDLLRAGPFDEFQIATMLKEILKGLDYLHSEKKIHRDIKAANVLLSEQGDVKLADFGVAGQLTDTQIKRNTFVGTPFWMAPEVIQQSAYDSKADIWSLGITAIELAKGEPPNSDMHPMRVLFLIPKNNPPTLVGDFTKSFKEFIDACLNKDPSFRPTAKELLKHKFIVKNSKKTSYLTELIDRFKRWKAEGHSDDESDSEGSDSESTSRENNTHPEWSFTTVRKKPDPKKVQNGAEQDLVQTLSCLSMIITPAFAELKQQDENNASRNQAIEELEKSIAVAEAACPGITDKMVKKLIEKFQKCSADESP

MATK (human) = MATK (human) (UniProt P42679)
[1] = system: EGFR (human), P00533 [P753S; 747-752 del]
PRKCD (human) = PRKCD (human) (UniProt Q05655)
AURKB (human) = AURKB (human) (UniProt Q96GD4)
FYN (human) = FYN (human) (UniProt P06241)
PDGFRA (human) = PDGFRA (human) (UniProt P16234)
MAP3K10 (human) = MAP3K10 (human) (UniProt Q02779)
WEE2 (human) = WEE2 (human) (UniProt P0C1S8)
Chain of WEE2 (human) (P0C1S8 whole entry, looked up): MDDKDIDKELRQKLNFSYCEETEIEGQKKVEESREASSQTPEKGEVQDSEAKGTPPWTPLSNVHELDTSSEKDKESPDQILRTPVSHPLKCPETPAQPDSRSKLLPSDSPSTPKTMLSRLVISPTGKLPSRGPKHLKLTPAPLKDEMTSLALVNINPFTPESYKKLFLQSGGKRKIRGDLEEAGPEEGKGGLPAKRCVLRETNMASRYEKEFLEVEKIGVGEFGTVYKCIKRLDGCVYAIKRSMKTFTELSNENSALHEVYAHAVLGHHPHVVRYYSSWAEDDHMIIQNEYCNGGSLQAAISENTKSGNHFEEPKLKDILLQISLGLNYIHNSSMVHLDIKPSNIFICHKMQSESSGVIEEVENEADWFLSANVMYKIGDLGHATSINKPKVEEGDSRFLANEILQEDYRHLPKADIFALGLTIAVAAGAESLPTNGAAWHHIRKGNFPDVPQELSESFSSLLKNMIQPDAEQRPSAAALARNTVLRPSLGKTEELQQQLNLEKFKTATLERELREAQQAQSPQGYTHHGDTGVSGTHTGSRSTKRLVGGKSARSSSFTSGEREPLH

AURKC (human) = AURKC (human) (UniProt Q9UQB9)
MAP3K15 (human) = MAP3K15 (human) (UniProt Q6ZN16)
Chain of MAP3K15 (human) (Q6ZN16 whole entry, looked up): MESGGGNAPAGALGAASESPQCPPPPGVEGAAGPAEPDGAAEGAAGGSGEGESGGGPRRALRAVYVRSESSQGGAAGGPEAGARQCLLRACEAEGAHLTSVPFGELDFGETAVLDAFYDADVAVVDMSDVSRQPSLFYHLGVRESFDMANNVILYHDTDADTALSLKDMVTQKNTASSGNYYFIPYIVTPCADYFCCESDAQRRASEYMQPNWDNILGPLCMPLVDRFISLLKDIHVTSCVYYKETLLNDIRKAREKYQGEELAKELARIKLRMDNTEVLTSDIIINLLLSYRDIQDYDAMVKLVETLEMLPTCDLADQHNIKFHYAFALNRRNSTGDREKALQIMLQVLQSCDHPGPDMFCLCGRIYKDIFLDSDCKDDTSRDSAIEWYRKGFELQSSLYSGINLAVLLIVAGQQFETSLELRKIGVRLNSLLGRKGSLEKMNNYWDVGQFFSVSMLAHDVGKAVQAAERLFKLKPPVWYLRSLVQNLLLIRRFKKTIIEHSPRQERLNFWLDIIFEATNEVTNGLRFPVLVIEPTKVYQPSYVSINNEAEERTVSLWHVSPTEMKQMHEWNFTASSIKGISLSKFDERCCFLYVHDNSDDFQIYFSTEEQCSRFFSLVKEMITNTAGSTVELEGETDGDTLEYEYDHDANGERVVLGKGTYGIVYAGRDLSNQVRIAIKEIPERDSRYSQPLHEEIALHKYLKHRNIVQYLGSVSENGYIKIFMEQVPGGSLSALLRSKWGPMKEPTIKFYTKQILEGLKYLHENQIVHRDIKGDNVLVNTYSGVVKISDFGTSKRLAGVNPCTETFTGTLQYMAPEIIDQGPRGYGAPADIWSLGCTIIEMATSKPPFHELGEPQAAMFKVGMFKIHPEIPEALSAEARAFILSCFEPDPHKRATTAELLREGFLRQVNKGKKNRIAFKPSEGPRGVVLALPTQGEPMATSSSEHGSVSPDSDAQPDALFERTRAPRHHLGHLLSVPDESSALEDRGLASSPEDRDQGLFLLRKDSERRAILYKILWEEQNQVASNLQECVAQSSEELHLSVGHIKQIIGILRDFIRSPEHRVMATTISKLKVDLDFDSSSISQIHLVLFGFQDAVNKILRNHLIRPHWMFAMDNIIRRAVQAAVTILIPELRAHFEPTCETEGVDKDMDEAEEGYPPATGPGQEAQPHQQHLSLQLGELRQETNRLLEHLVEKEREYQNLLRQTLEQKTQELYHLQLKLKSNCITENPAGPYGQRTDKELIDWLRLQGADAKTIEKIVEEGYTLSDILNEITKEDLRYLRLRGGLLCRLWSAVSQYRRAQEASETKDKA

MAP4K5 (human) = MAP4K5 (human) (UniProt Q9Y4K4)
Chain of MAP4K5 (human) (Q9Y4K4 whole entry, looked up): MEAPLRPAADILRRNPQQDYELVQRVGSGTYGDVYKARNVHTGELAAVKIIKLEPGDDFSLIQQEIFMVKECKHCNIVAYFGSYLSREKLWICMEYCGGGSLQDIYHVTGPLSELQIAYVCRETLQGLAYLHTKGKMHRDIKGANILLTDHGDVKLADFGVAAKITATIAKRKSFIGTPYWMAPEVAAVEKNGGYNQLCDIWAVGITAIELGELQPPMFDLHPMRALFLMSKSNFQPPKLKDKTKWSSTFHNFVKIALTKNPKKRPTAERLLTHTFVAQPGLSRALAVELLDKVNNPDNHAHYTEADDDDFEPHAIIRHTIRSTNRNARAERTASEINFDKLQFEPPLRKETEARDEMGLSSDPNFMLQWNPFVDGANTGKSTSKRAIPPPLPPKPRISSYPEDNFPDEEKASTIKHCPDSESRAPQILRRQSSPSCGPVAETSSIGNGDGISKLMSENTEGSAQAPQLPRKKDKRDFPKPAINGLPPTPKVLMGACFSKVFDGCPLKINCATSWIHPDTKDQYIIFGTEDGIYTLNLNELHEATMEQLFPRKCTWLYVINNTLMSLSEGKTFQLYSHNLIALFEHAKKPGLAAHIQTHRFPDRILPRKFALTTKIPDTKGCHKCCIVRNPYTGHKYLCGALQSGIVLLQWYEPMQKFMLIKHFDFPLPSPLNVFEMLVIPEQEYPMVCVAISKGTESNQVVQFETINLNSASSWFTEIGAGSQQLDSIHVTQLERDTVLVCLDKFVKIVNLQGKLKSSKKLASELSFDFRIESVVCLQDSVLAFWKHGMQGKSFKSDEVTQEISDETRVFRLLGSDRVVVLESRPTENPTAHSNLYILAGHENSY

NUAK2 (human) = NUAK2 (human) (UniProt Q9H093)
MAPK3 (human) = MAPK3 (human) (UniProt P27361)
DCLK2 (human) = DCLK2 (human) (UniProt Q8N568)
ACVRL1 (human) = ACVRL1 (human) (UniProt P37023)
MAPK8 (human) = MAPK8 (human) (UniProt P45983)
RPS6KA6 KD1 (human) = RPS6KA6 KD1 (human) (UniProt Q9UK32)
Chain of RPS6KA6 KD1 (human) (Q9UK32 whole entry, looked up): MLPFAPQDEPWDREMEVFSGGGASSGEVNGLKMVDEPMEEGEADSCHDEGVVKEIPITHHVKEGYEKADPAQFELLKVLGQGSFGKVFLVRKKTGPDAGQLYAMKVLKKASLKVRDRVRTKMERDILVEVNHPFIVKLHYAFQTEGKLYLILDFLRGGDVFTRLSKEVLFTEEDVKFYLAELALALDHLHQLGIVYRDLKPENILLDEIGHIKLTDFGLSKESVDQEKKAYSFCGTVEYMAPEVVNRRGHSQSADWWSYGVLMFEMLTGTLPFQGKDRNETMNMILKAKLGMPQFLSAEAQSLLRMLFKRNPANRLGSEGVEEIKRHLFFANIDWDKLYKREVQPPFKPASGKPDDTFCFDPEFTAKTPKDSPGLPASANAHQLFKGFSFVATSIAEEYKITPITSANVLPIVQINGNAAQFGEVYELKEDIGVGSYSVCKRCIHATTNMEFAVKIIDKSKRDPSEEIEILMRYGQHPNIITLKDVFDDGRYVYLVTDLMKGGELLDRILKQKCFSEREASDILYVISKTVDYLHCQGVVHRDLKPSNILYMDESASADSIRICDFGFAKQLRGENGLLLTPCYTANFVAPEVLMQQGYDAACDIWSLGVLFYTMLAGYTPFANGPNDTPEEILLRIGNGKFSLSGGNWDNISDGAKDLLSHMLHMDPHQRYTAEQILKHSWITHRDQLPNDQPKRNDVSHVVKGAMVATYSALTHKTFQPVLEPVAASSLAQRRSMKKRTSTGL

CDK8 (human) = CDK8 (human) (UniProt P49336)
PRKCH (human) = PRKCH (human) (UniProt P24723)
STK39 (human) = STK39 (human) (UniProt Q9UEW8)
TNK1 (human) = TNK1 (human) (UniProt Q13470)
FGFR4 (human) = FGFR4 (human) (UniProt P22455)
MAP3K7 (human) = MAP3K7 (human) (UniProt O43318)
Chain of MAP3K7 (human) (O43318 whole entry, looked up): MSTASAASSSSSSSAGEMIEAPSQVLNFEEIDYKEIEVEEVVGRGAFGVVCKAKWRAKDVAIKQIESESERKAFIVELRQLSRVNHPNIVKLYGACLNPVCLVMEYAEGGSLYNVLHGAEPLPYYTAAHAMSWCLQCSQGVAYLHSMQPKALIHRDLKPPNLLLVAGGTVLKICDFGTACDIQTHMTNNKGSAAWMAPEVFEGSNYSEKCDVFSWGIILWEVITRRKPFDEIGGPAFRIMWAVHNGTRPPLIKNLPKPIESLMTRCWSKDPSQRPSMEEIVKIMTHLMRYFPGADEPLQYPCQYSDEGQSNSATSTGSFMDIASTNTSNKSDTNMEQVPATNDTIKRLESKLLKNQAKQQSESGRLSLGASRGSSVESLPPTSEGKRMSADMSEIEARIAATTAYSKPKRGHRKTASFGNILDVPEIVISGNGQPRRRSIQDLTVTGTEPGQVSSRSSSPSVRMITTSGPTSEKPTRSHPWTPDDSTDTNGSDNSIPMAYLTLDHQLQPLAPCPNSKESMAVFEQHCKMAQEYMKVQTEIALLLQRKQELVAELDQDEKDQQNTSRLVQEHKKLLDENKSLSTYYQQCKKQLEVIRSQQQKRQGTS

BRSK1 (human) = BRSK1 (human) (UniProt Q8TDC3)
PAK3 (human) = PAK3 (human) (UniProt O75914)
[2] = system: EGFR (human), P00533 [G719S]
EPHB1 (human) = EPHB1 (human) (UniProt P54762)
BMP2K (human) = BMP2K (human) (UniProt Q9NSY1)

An inhibition of binding (HIPK1 (human)) of 0%, an inhibition of binding (CDKL2 (human)) of 0% and an inhibition of binding (SIK2 (human)) of 0% were found for `Nc1cc(C(F)(F)F)c(-c2cc(N3CCOCC3)nc(N3CCOCC3)n2)cn1` in this work. The inhibition of binding (DMPK (human)) was 0%, the inhibition of binding (GSK3B (human)) was 0% and the inhibition of binding (DCLK3 (human)) was 51%. The inhibition of binding (PLK4 (human)) was 1%, the inhibition of binding (ACVR1B (human)) was 3% and the inhibition of binding (MYLK3 (human)) was 0%. It also gave an inhibition of binding (BMX (human)) of 14%, an inhibition of binding (CAMK1D (human)) of 0% and an inhibition of binding (MST4 (human)) of 0%. The inhibition of binding (MATK (human)) was 28%, the inhibition of binding [1] was 1% and the inhibition of binding (PRKCD (human)) was 4%. It also gave an inhibition of binding (AURKB (human)) of 0%, an inhibition of binding (FYN (human)) of 0% and an inhibition of binding (PDGFRA (human)) of 11%. The inhibition of binding (MAP3K10 (human)) was 0%, the inhibition of binding (WEE2 (human)) was 0% and the inhibition of binding (AURKC (human)) was 0%. The inhibition of binding (MAP3K15 (human)) was 0%, the inhibition of binding (MAP4K5 (human)) was 0% and the inhibition of binding (NUAK2 (human)) was 0%. For the same compound, the inhibition of binding (MAPK3 (human)) was 1%, the inhibition of binding (DCLK2 (human)) was 30% and the inhibition of binding (ACVRL1 (human)) was 38%. For the same compound, the inhibition of binding (MAPK8 (human)) was 0%, the inhibition of binding (RPS6KA6 KD1 (human)) was 0% and the inhibition of binding (CDK8 (human)) was 0%. For the same compound, the inhibition of binding (PRKCH (human)) was 0%, the inhibition of binding (STK39 (human)) was 2% and the inhibition of binding (TNK1 (human)) was 10%. For the same compound, the inhibition of binding (FGFR4 (human)) was 0%, the inhibition of binding (MAP3K7 (human)) was 5% and the inhibition of binding (BRSK1 (human)) was 0%. The inhibition of binding (PAK3 (human)) was 0%, the inhibition of binding [2] was 10% and the inhibition of binding (EPHB1 (human)) was 0%. For the same compound, the inhibition of binding (BMP2K (human)) was 0%.
